Earlier results in paper PMC10329973 (Clinical pharmacology in drug development, 2023).

Experiments:
[1] = system: depressed individuals; conditions: study in depressed individuals; cited from earlier work
[2] = system: blood pressure; conditions: cited from earlier work

For `C[C@@H]([C@@H](O)c1ccc(O)cc1)N1CCC(O)(c2ccccc2)CC1` [CP-101,606, traxoprodil], the dissociative effects [1] is given as “ketamine-like dissociative effects were noted”.

In the case of `Cc1ccc(COC(=O)N2CC[C@H](CNc3ncccn3)[C@H](F)C2)cc1` [MK-0657], the off-target cardiovascular effects [2] is listed as “increased blood pressure”.
